# Measured values published in paper PMC9147171, “Pharmacokinetic/Pharmacodynamic Evaluation of a New Purine-2,6-Dione Derivative in Rodents with Experimental Autoimmune Diseases” (Pharmaceutics, 2022).
# Key:
# [1] = biological target: T1, hrPDE1B (Homo sapiens, UniProt Q01064); experiment: PDE-Glo catalytic activity assay, PDE1B; assay type: biochemical
# T1 construct: purchased SignalChem, Richmond, Canada
# Experimental: The inhibitory activity of compound 34 against hrPDE1B and hrPDE3A (SignalChem, Richmond, Canada) was assessed using the PDE-Glo™ catalytic activity assay (Promega Corporation, Madison, WI, USA). It was performed on 384-well plates according to manufacturer’s instructions with slight modifications. Solutions of both PDEs were prepared by diluting their stock solutions in the PDE-Glo™ Reaction Buffer and aliquots of 6.5 μL were added to the wells. A stock solution of the tested compound was prepared in DMSO at a concentration of 10 mM and serially diluted with the same solvent. The obtained solutions were further diluted with PDE-Glo™ Reaction Buffer (1:5, v/v) and aliquots of 1 μL were transferred to the respective wells. Then, the mixture was incubated for 10 min at 30 °C on a heated plate shaker (Grant Instruments, Cambridge, United Kingdom). The reaction was started by the addition of 2.5 μL of a 0.2 μM cAMP solution to each well and the plate was incubated for 10 min at 30 °C on a heated plate shaker. Moreover, for each series, respective control reactions were performed: no-substrate, no-enzyme negative control reactions; no-enzyme positive control reactions containing substrate; and no-inhibitor positive control reactions containing both the substrate and PDE. After incubation, the reaction was stopped by adding 2.5 μL of the PDE-Glo™ Termination Buffer. A volume of 2.5 μL of the PDE-Glo™ Detection Buffer was transferred to each well and the plate was incubated for 20 min at room temperature. Finally, an aliquot of 10 μL of the PDE-Glo Kinase® Reagent was added to the wells. The plate was incubated for 10 min at room temperature and luminescence was measured with a luminometer (BMG Labtech, Ortenberg, Germany). For each inhibitor concentration, four independent measurements were performed. The resulting data were expressed as percent of an uninhibited control and plotted against the inhibitor concentration. The IC50 values were estimated by nonlinear regression using ADAPT5 software (BMSR, Los Angeles, CA, USA).
# [2] = Pharmacokinetic study in mice, single IP dose, serum; assay type: in vivo, female C57BL/6 mice; conditions: female, mouse
# Experimental: Female Lewis rats and female C57BL/6 mice were administered IP with compound 34 dissolved in vehicle at a dose of 20 and 50 mg·kg^−1, respectively. Rats and mice were sacrificed at different time points (n = 3 per time point) following compound administration by decapitation under deep anesthesia. Thereafter, blood samples were harvested and allowed to clot at room temperature for 20 min and serum was separated by centrifugation at 3000 rpm for 10 min (EBA 12 R, Hettich, Germany). The obtained serum samples were stored at −80 °C until analysis.
# Concentrations of compound 34 in rat and murine serum were quantified by an HPLC/UV method. To isolate the investigated compound, 100 μL of serum containing compound 34 or the same volume of blank serum spiked with a standard solution of compound 34, 10 μL of 4-(8-((furan-2-ylmethyl)amino)-1,3-dimethyl-2,6-dioxo-2,3,6,7-tetrahydro-1H-purin-7-yl)-N’-(2-hydroxybenzylidene)butanehydrazide methanol solution was used as an internal standard (IS) at a concentration of 80 μg·mL^−1, and 50 μL of 0.2 M NaOH solution was added. Subsequently, 1 mL of ethyl acetate was added to each sample and extraction was performed for 20 min on a VXR Vibrax shaker (IKA, Germany). Then, the samples were centrifuged (10,000× g, 5 min) on EBA 12 R centrifuge (Hettich, Germany) and the organic layers were collected and transferred to clean tubes. Subsequently, the organic layers were evaporated under a mild stream of nitrogen at 37 °C and the residues were dissolved in 100 μL of mobile phase and subjected to an HPLC analysis. The HPLC system (LaChrom Elite, Merck-Hitachi, Germany) consisted of L-2420 UV-VIS detector, an L-2200 autosampler, and an L-2130 pump. EZChrome Elite v. 3.2 (Merck-Hitachi, Germany) software was used for data acquisition and integration. The analysis was performed at ambient temperature on a LiChrospher 100 RP-18 column (250 × 4 mm) and a LiChroCART (4 × 4 mm) pre-column (Merck, Germany). The mobile phase was composed of acetonitrile mixed with 20 mM KH2PO4 water solution (pH = 4.5) at the ratio of 40:60 (v/v). A flow rate was 1 mL·min^−1 and analytical wavelength was set at 302 nm. The retention times of compound 34 and IS were approximately 6.3 min and 10.6 min. The method was validated according to the FDA Bioanalytical Method Validation Guidance for Industry (2018). The calibration curves constructed by plotting the peak area of the studied compound to the peak area of the IS vs. compound concentrations were linear in the tested concentration range, i.e., from 0.05–10 mg·L^−1 (r > 0.998). The limit of quantification was 0.05 mg·L^−1. […] The assay presented acceptable intra- and inter-assay precision and accuracy (i.e., they were within 15% of the CV and 15% of the nominal concentration, respectively) for all quality control concentrations (0.1, 1, and 5 mg·L^−1). The mean extraction efficiencies of the analyzed compound and the IS were above 80%.
# Pharmacokinetics of compound 34 were investigated in rats and mice following single IP administration. One- and two-compartment models with first-order absorption and linear elimination were tested, but only the one-compartment model appropriately described the concentration-time courses of compound 34 in both rat and murine serum. […] The equations of the model are as follows:(1) dA/dt=−ka×A;A0=D×F, (2) Vd×dCp/dt=ka×A−CLT×Cp; Cp0=0 where A is the amount of the drug at the absorption site, ka is the first-order rate constant of drug absorption, D is the dose, F is the bioavailability, Vd is the volume of distribution, CLT is the total clearance, and Cp is the serum concentration of compound 34.
# [3] = system: PDE4B; conditions: read-out: IC50 (µM) Against PDE Isoform PDE4B; cited from earlier work
# [4] = system: PDE7A; conditions: read-out: IC50 (µM) Against PDE Isoform PDE7A; cited from earlier work
# [5] = system: LPS-induced endotoxemia in rats; parameters: method as in PMID 29407965; conditions: single IP dose of 50 mg·kg^−1, at 1.5 h post-LPS dosing; cited from earlier work
# T1 sequence (Q01064 whole entry): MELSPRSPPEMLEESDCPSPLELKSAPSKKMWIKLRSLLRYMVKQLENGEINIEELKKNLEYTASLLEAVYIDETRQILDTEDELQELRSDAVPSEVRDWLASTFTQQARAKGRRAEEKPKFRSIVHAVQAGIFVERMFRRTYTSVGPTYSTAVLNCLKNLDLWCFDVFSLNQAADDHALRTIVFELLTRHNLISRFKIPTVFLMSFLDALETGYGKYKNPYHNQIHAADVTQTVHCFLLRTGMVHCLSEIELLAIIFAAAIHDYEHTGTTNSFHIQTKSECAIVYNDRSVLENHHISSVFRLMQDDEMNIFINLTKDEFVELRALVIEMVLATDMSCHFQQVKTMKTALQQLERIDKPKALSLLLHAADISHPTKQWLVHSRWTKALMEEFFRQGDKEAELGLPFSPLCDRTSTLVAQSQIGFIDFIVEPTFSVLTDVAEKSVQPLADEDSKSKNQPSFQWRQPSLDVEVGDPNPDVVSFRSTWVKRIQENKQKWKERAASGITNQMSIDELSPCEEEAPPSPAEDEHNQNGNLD
structure (smiles),measurement,setting,value
"Cn1c(=O)c2c(nc(NCCc3ccccc3)n2CCCC(=O)NN=Cc2ccc(O)c(O)c2O)n(C)c1=O [Compound 34, 4-(1,3-dimethyl-2,6-dioxo-8-(phenethylamino)-2,3,6,7-tetrahydro-1H-purin-7-yl)-N′-(2,3,4-trihydroxybenzylidene)butanehydrazide]",IC50,"[1]; human recombinant PDE1B, CV% in brackets, read-out: IC50 (µM) Against PDE Isoform (CV%) PDE1B",0.21 µM
same,times more potent than GRMS-55 in inhibiting PDE1B,"[1]; ratio of IC50 values, vs GRMS-55",12 times
same,"inhibitory activity against PDE1B, times higher than that of vinpocetine","[1]; ratio of IC50 values, vs vinpocetine",around 36 times
same,absorption half-life,"[2]; C57BL/6, serum, 50 mg·kg^−1, IP, solution in DMSO:PEG400:sterile water (10:40:50)",4.5 min
same,Vd/F,"[2]; C57BL/6, single IP dose 50 mg·kg^−1, serum, one-compartment model, read-out: Vd/F Apparent volume of distribution, Final Estimate (CV%)",21.7 L/kg
same,AUC,"[2]; C57BL/6, single IP dose 50 mg·kg^−1, serum, read-out: AUC Area under the concentration-time curve, Final Estimate (CV%) (converted)",818 ng·h/mL
same,CL/F,"[2]; C57BL/6, single IP dose 50 mg·kg^−1, serum, read-out: CLT/F Apparent clearance, Final Estimate (CV%)",1020 mL/min/kg
same,Cmax,"[2]; C57BL/6, single IP dose 50 mg·kg^−1, serum, read-out: Cmax Maximum serum concentration, Final Estimate (CV%)",1370 ng/mL
same,half-life,"[2]; C57BL/6, single IP dose 50 mg·kg^−1, serum, read-out: t0.5 Elimination half-life, Final Estimate (CV%)",14.7 min
same,IC50,[3],1.4 µM
same,IC50,[4],3.2 µM
same,reduction of maximum plasma TNFα concentrations,[5],84%
